In the NIST ThermoML archive (doi:10.1016/j.jct.2016.02.007) one finds mass density data, which are given here for 3 compounds.

What is called mass density is the mass of a sample divided by its volume.

For data set [1] the following is noted: 101.3 kPa, Liquid, Vibrating tube method.
A short description of data set [2]: wn = mass fraction of the nth substance listed. Conditions: 101.3 kPa, Liquid, Vibrating tube method, w2 = 0.

± gives the expanded uncertainty stated by the source.

`CN(C)CCCO` [3-dimethylamino-1-propanol]: the mass density turned out to be 886.7 ± 4.8 kg/m3 in data set [1] (293.15 K); 883 ± 4.8 kg/m3 in data set [1] (298.15 K); 879.1 ± 4.8 kg/m3 in data set [1] (303.15 K); 875.1 ± 4.8 kg/m3 in data set [1] (308.15 K); 871.2 ± 4.8 kg/m3 in data set [1] (313.15 K); 867.2 ± 4.8 kg/m3 in data set [1] (318.15 K). In addition, the mass density is given as 863.1 ± 4.8 kg/m3 in data set [1] (323.15 K); 859.1 ± 4.8 kg/m3 in data set [1] (328.15 K); 855 ± 4.8 kg/m3 in data set [1] (333.15 K); 850.8 ± 4.8 kg/m3 in data set [1] (338.15 K); 846.7 ± 4.8 kg/m3 in data set [1] (343.15 K).

As to `O` [water], the mass density is given as 992.3 ± 1 kg/m3 in data set [1] (313.15 K); 990.3 ± 1 kg/m3 in data set [1] (318.15 K); 988 ± 1 kg/m3 in data set [1] (323.15 K); 985.6 ± 1 kg/m3 in data set [1] (328.15 K); 983.3 ± 1 kg/m3 in data set [1] (333.15 K); 980.7 ± 1 kg/m3 in data set [1] (338.15 K). The mass density in data set [1] (343.15 K) is recorded as 977.9 ± 1 kg/m3.

Turning to `O` [water] + CN(C)CCCO, the mass density is on record as 992.3 ± 4.8 kg/m3 in data set [2] (313.15 K); 990.3 ± 4.8 kg/m3 in data set [2] (318.15 K); 988 ± 4.8 kg/m3 in data set [2] (323.15 K); 985.6 ± 4.8 kg/m3 in data set [2] (328.15 K); 983.3 ± 4.8 kg/m3 in data set [2] (333.15 K); 980.7 ± 4.8 kg/m3 in data set [2] (338.15 K). Besides, in data set [2] (343.15 K), the mass density was 977.9 ± 4.8 kg/m3.
